What all share (experiment): NCI-60 cell line screen, 48 h
Experiment [1] has as its system UACC-257.
The test system of experiment [2] is OVCAR-3.
Experiment [3] relates to SNB-19.
The test system of experiment [4] is IGROV-1.
The test system of experiment [5] is M14.
Experiment [6] has as its system K562.
Experiment [7] concerns SK-OV-3.
Experiment [8] has as its system ACHN.
For experiment [9], the system named is UACC-62.
The subject of experiment [10] is EKVX.
For experiment [11], the system named is HCT-116.
For experiment [12], the system named is SK-MEL-2.
Experiment [13] concerns RPMI-8226.
Experiment [14] relates to HCT-15.
For experiment [15], the system named is SK-MEL-28.
In experiment [16] the test system is NCI-H226.
Experiment [17] relates to OVCAR-8.
Experiment [18] relates to NCI-H460.

The record followed here is ChEMBL document CHEMBL1201862, “PubChem BioAssay data set” (2004).

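All cell lines were grown in 96-well plates and treated with compound for 48 hours. Here, GI50 denotes the concentration required for 50% inhibition of growth.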 Active and inactive are the calls of the source. Rule as the data show it: active = GI50 up to about 1.1 µM and inactive = higher.

Take `C=CC/N=C1\N=C(C)C(C(=O)OCC)S1` (stereo not given): the GI50 in experiment [1], in [2], in experiment [3], in experiment [4], in [5] and in experiment [6] was > 100 µM (inactive) each time. The GI50 in experiment [7], in experiment [8], in experiment [9], in experiment [10], in experiment [11] and in experiment [12] was > 100 µM (inactive) in each case. Besides, the GI50 is > 100 µM (inactive) in [13]; greater than 100 µM in experiment [14]; > 100 µM (inactive) in experiment [15]; > 100 µM (inactive) in experiment [16]; > 100 µM (inactive) in [17]; > 100 µM (inactive) in [18].

In the case of `Cc1ccc(CC(C)N)cc1` (stereo not given), the GI50 in experiment [1], in [2], in [3], in experiment [4], in experiment [5] and in [6] was > 100 µM (inactive) each time. Also, the GI50 in experiment [7], in experiment [8], in [9], in [10], in experiment [11] and in [12] was > 100 µM (inactive) in each case. Also, the GI50 is > 100 µM (inactive) in experiment [13]; greater than 100 µM in experiment [14]; > 100 µM (inactive) in [15]; > 100 µM (inactive) in experiment [16]; > 100 µM (inactive) in experiment [17]; > 100 µM (inactive) in experiment [18].

Turning to `COC12C=CC(CC1)c1c(O)ccc(O)c12` (stereo not given), the GI50 in experiment [1] is > 84.9 µM (inactive); in [2], 21.8 µM (inactive); in experiment [3], > 70.6 µM (inactive); in [4], > 100 µM (inactive); in experiment [5] it was 57.7 µM (inactive); in experiment [6], 22.6 µM (inactive). For the same compound, the GI50 in experiment [7] was > 100 µM (inactive); in experiment [8], 39.3 µM (inactive); in experiment [9], 27.3 µM (inactive); in experiment [10], > 66.2 µM (inactive); in experiment [11] it was 40.7 µM (inactive); in [12], 42.9 µM (inactive). For the same compound, the GI50 in experiment [13] was 50.8 µM (inactive); in experiment [14] it was 29.7 µM; in experiment [15] it was 87.5 µM (inactive); in experiment [16], 39.1 µM (inactive); in experiment [17], 33 µM (inactive); in experiment [18], 52.8 µM (inactive).

`O=C(O)CCCc1cc2c(s1)-c1cccc3cccc-2c13`: the GI50 in [1] is 22.6 µM (inactive); in experiment [2], 19.1 µM (inactive); in experiment [3], 27.4 µM (inactive); in [4], 47.3 µM (inactive); in experiment [5], 50.1 µM (inactive); in [6] it was 31.9 µM (inactive). The GI50 in experiment [7] was 19.8 µM (inactive); in experiment [8], 22.4 µM (inactive); in experiment [9], 21.3 µM (inactive); in [11], 34.8 µM (inactive); in experiment [12], 20.4 µM (inactive); in experiment [13], 21.5 µM (inactive). Besides, the GI50 was 20.2 µM in experiment [14]; 34.2 µM (inactive) in experiment [15]; 84.9 µM (inactive) in experiment [16]; 39.4 µM (inactive) in experiment [17]; > 100 µM (inactive) in experiment [18].

`CC1=CP(=O)(OC(C)C)C=C(C)C1=C(Cl)Cl` (stereo not given): the GI50 in experiment [1] is 32.2 µM (inactive); in [2], > 100 µM (inactive); in [3] it was > 100 µM (inactive); in experiment [4], > 100 µM (inactive); in experiment [5], 59.6 µM (inactive); in experiment [6], 42 µM (inactive). Besides, the GI50 in experiment [7] is 17.4 µM (inactive); in experiment [8], 47.1 µM (inactive); in experiment [9], 32.6 µM (inactive); in [10], > 100 µM (inactive); in experiment [11] it was 24.9 µM (inactive); in experiment [12] it was 20.3 µM (inactive). Moreover, the GI50 in experiment [13] was 32.7 µM (inactive); in experiment [14], 46 µM; in [15] it was 63.5 µM (inactive); in [16], 26.2 µM (inactive); in experiment [17], 68.7 µM (inactive); in [18], 68.2 µM (inactive).

Consider `C/C(=N\NC(N)=S)c1ccc(C)c(C)c1`, for which the GI50 in experiment [1] was 44.2 µM (inactive); in experiment [2] it was 22.8 µM (inactive); in experiment [4], 25.4 µM (inactive); in [5] it was 41.7 µM (inactive); in experiment [6], 36.6 µM (inactive); in [7] it was 75.7 µM (inactive). Besides, the GI50 is 59.2 µM (inactive) in experiment [8]; 28.4 µM (inactive) in [9]; 3.31 µM (inactive) in [10]; > 100 µM (inactive) in experiment [11]; 45 µM (inactive) in experiment [12]; 34.5 µM (inactive) in [13]. Besides, the GI50 was 58.5 µM in experiment [14]; > 100 µM (inactive) in experiment [15]; 51.2 µM (inactive) in experiment [16]; 66.2 µM (inactive) in experiment [17]; 59.3 µM (inactive) in [18].

Take `CC(C)(c1ccc(Oc2ccc(C#N)c(C#N)c2)cc1)c1ccc(Oc2ccc(C#N)c(C#N)c2)cc1`: the GI50 in experiment [1], in experiment [2], in experiment [3], in experiment [4], in experiment [5] and in experiment [6] was > 10 µM (inactive) in each case. Besides, the GI50 in experiment [7], in experiment [8], in [9], in [10], in experiment [11] and in [12] was > 10 µM (inactive) throughout. The GI50 in experiment [13] is > 10 µM (inactive); in experiment [14] it was greater than 10 µM; in experiment [15], > 10 µM (inactive); in experiment [16], > 10 µM (inactive); in experiment [17], > 10 µM (inactive); in experiment [18], > 10 µM (inactive).

`CC/C(CC(=O)CCC(=O)Nc1ccccc1[N+](=O)[O-])=N/NC(=O)C[n+]1ccccc1`: the GI50 in experiment [1], in [2], in experiment [3], in [4], in experiment [5] and in experiment [6] was > 100 µM (inactive) in each case. For the same compound, the GI50 in [7], in experiment [8], in experiment [9], in experiment [10], in experiment [11] and in [12] was > 100 µM (inactive) in each case. Moreover, the GI50 in experiment [13] was > 100 µM (inactive); in [14], greater than 100 µM; in experiment [15], > 100 µM (inactive); in [16], > 100 µM (inactive); in [17] it was > 100 µM (inactive); in experiment [18], > 100 µM (inactive).

As to `CC1(C)CC(/C=C2/OC(=O)c3ccccc32)=C(C#N)C(=O)O1`, the GI50 in experiment [1], in experiment [2], in experiment [3], in experiment [4], in experiment [5] and in experiment [6] was > 100 µM (inactive) in each case. The GI50 in experiment [7], in [8], in [9], in experiment [10], in [11] and in experiment [12] was > 100 µM (inactive) in each case. Besides, the GI50 in experiment [13] is > 100 µM (inactive); in [14], greater than 100 µM; in experiment [15] it was > 100 µM (inactive); in [16] it was > 100 µM (inactive); in [17], > 100 µM (inactive); in experiment [18] it was > 100 µM (inactive).

Regarding `C[Si]1(C)C(c2ccccc2)=CC2C(c3ccccc3)(c3ccccc3)OC21c1ccccc1` (stereo not given), the GI50 in experiment [1] is > 100 µM (inactive); in experiment [2], > 100 µM (inactive); in experiment [3], > 100 µM (inactive); in [4] it was > 100 µM (inactive); in experiment [5], 43.8 µM (inactive); in experiment [6], 87.7 µM (inactive). Besides, the GI50 in experiment [7] was > 100 µM (inactive); in experiment [8], > 100 µM (inactive); in experiment [9], > 100 µM (inactive); in experiment [10], > 100 µM (inactive); in experiment [11], 28.2 µM (inactive); in experiment [12], > 100 µM (inactive). For the same compound, the GI50 in [13] was 30.1 µM (inactive); in experiment [14] it was greater than 100 µM; in experiment [15], > 100 µM (inactive); in experiment [16] it was > 100 µM (inactive); in experiment [18] it was > 100 µM (inactive).

Consider `COc1cc([C@@H]2c3cc4c(cc3[C@@H](NC(=O)c3cccc(C#N)c3)C3COC(=O)[C@@H]32)OCO4)cc(OC)c1O` (stereo not given in full), for which the GI50 is 6.17 µM (inactive) in experiment [1]; 2.75 µM (inactive) in experiment [2]; 0.404 µM (active) in experiment [3]; 1.05 µM (active) in experiment [4]; 1.11 µM (active) in experiment [5]; 1.73 µM (inactive) in experiment [6]. The GI50 in experiment [7] is 0.912 µM (active); in [8], 0.182 µM (active); in experiment [9] it was 0.308 µM (active); in [10], 1.36 µM (inactive); in [11] it was 1.1 µM (active); in [12], 3.55 µM (inactive). The GI50 in experiment [13] was 7.14 µM (inactive); in experiment [14], 3.81 µM; in experiment [15] it was 2.92 µM (inactive); in [16], 0.0671 µM (active); in experiment [17], 1.19 µM (inactive); in [18] it was < 0.01 µM (active).
